What was measured:
[1] = xn = mol fraction of the nth substance listed

CCCc1ccccc1
Conditions | viscosity [mPa·s]
303.15 K, 101 kPa | 0.7591
303.15 K, 101.3 kPa | 0.75
308.15 K, 101.33 kPa | 0.7001
313.15 K, 102 kPa | 0.649
323.15 K, 102 kPa | 0.573

CC(=O)Oc1ccccc1C(=O)O + CCC(C)O
viscosity [mPa·s], [1], 101 kPa
Conditions | x1 = 0.0007 | x1 = 0.00094 | x1 = 0.00118 | x1 = 0.00141 | x1 = 0.00165 | x1 = 0.00189 | x1 = 0.00236
293.15 K | 3.623 | 3.624 | 3.626 | 3.627 | 3.628 | 3.63 | 3.632
298.15 K | 3.014 | 3.015 | 3.015 | 3.016 | 3.017 | 3.018 | 3.02
303.15 K | 2.525 | 2.526 | 2.527 | 2.527 | 2.528 | 2.529 | 2.531
308.15 K | 2.12 | 2.121 | 2.122 | 2.123 | 2.123 | 2.124 | 2.125
310.15 K | 1.974 | 1.975 | 1.976 | 1.976 | 1.977 | 1.978 | 1.979
313.15 K | 1.792 | 1.793 | 1.794 | 1.795 | 1.796 | 1.797 | 1.798

COc1ccccc1 + CCO
[1], 298.15 K, 101 kPa
Conditions | viscosity [mPa·s]
x1 = 0.07099 | 1.045
x1 = 0.152 | 0.989
x1 = 0.2432 | 0.947
x1 = 0.3485 | 0.918
x1 = 0.4715 | 0.904
x1 = 0.6165 | 0.905
x1 = 0.7928 | 0.924

CC1COC(=O)O1 (stereo unspecified) + CC(C)=O
[1], 303.15 K, 101.3 kPa
Conditions | viscosity [mPa·s]
x1 = 0.088 | 0.3518
x1 = 0.1784 | 0.4187
x1 = 0.2713 | 0.5016
x1 = 0.3668 | 0.6038
x1 = 0.4647 | 0.7316
x1 = 0.5657 | 0.8959
x1 = 0.6697 | 1.104
x1 = 0.7768 | 1.371
x1 = 0.8864 | 1.71

C1CCOC1 + C1COCCO1
Conditions | viscosity [mPa·s]
[1], 298.15 K, 101 kPa, x2 = 0.5 | 0.6797

O=[N+]([O-])[O-].O=[N+]([O-])[O-].[Mg+2] + O
viscosity [mPa·s], [1], 100 kPa
Conditions | x1 = 0.01 | x1 = 0.03 | x1 = 0.05 | x1 = 0.07
298.15 K | 1.138 | 1.6 | 2.409 | 4.609
323.15 K | 0.707 | 0.9853 | 1.479 | 2.709

COc1ccccc1 + CS(C)=O
viscosity [mPa·s], [1], 101.3 kPa
Conditions | x2 = 0.1034 | x2 = 0.203 | x2 = 0.3049 | x2 = 0.4058 | x2 = 0.5049 | x2 = 0.6063 | x2 = 0.7044 | x2 = 0.8039 | x2 = 0.9011
298.15 K | 1.049 | 1.113 | 1.184 | 1.259 | 1.342 | 1.443 | 1.544 | 1.666 | 1.808
303.15 K | 0.968 | 1.024 | 1.104 | – | 1.229 | 1.32 | 1.408 | 1.517 | 1.641
308.15 K | 0.899 | 0.949 | 1.008 | 1.068 | 1.133 | 1.214 | 1.292 | 1.388 | 1.5

CCCC[P+](CCCC)(CCCC)CCCC.CS(=O)(=O)[O-] + c1c[nH]cn1
[1], 101.33 kPa, x1 = 0.5
Conditions | viscosity [mPa·s]
313.05 K | 99.81
323.05 K | 61.32

CC(C)=O + CC(C)CC(C)(C)C
[1], 298.15 K, 101 kPa
Conditions | viscosity [mPa·s]
x1 = 0.0643 | 0.456
x1 = 0.1001 | 0.448
x1 = 0.2004 | 0.428
x1 = 0.2297 | 0.422
x1 = 0.2934 | 0.417
x1 = 0.3408 | 0.404
x1 = 0.3994 | 0.395
x1 = 0.5006 | 0.378
x1 = 0.5566 | 0.367
x1 = 0.5927 | 0.36
x1 = 0.7032 | 0.341
x1 = 0.7941 | 0.327
x1 = 0.8898 | 0.314

CC1COC(=O)O1 (stereo unspecified) + CCCCO
[1], 298 K, 101.3 kPa
Conditions | viscosity [mPa·s]
x1 = 0.0202 | 2.541
x1 = 0.0403 | 2.511
x1 = 0.0604 | 2.482
x1 = 0.08 | 2.452
x1 = 0.1006 | 2.423
x1 = 0.2005 | 2.287
x1 = 0.3006 | 2.167
x1 = 0.4003 | 2.074
x1 = 0.5 | 2.016
x1 = 0.6001 | 1.999
x1 = 0.7 | 2.031
x1 = 0.8004 | 2.12
x1 = 0.9 | 2.271

CCCCn1cc[n+](C)c1.O=S(=O)([O-])C(F)(F)F + CCCCO
[1], 100 kPa
Conditions | viscosity [mPa·s]
298.15 K, x1 = 0.2147 | 6.17
298.15 K, x1 = 0.2908 | 8.85
298.15 K, x1 = 0.9078 | 62.73
303.15 K, x1 = 0.2147 | 5.08
303.15 K, x1 = 0.2908 | 6.92
303.15 K, x1 = 0.9078 | 50.78
308.15 K, x1 = 0.2908 | 6.03
313.15 K, x1 = 0.4008 | 9.48
318.15 K, x1 = 0.4008 | 7.86
323.15 K, x1 = 0.4008 | 7.16

CC(C)C[P+](C)(CC(C)C)CC(C)C.Cc1ccc(S(=O)(=O)[O-])cc1 + O=S1(=O)CCCC1
Conditions | viscosity [mPa·s]
[1], 323.15 K, 101.33 kPa, x1 = 0.5 | 68.5

c1ccc2ccccc2c1 + Nc1ccccc1
viscosity [mPa·s], [1]
Conditions | 308.15 K | 313.15 K | 318.15 K | 323.15 K
101 kPa, x1 = 0.2092 | 2.365 | 2.092 | 1.868 | 1.687
101 kPa, x1 = 0.3036 | 2.224 | 1.988 | 1.783 | 1.616
101.33 kPa, x1 = 0.209 | 2.365 | 2.092 | 1.868 | 1.687
101.33 kPa, x1 = 0.2092 | 2.365 | – | – | –
101.33 kPa, x1 = 0.2497 | 2.291 | – | – | –
101.33 kPa, x1 = 0.3 | 2.224 | 1.988 | 1.783 | 1.616
101.33 kPa, x1 = 0.3036 | 2.224 | – | – | –

Source: the CheMixHub viscosity set
